Holding throughout (type): cell-based
One test deals with BT549 cells. The test can be described thus: Gene expression by qRT-PCR (TUBB reference). On the procedure:
(§1) Cell culture and drug treatments. Cell lines were obtained from ATCC (American Type Culture Collection, Manassas, VA) and grown under standard conditions (5% CO2, 10% FBS (fetal bovine serum), with 5% antifungal/antibacterial). Cell lines were tested for Mycoplasma using the MycoAlert Mycoplasma Detection Kit (Lonza, Basel Switzerland, cat: LT07-218); all experiments were done with mycoplasma negative cells. U87MG cells were propagated in MEM (Minimal Essential Medium). BT549 and DBTRG cells were propagated in RPMI (Roswell Park Memorial Institute 1640 Medium). LN18, U118MG, A172 and LN229 cells were propagated in DMEM (Dulbecco's Modified Eagle Medium). Neurosphere/cancer stem cell cultures for U87MG and BT549 cell lines were plated with 40,000 cells per mL in 3D Tumorsphere Medium XF (Sigma cat: C-28070, Burlington, MA). BT549 cancer stem cell cultures were supplemented with 1XB27 XenoFree CTS (Gibco/Thermo Fisher Waltham, MA, USA). AS1842856 was purchased from Calbiochem (Danvers, MA) and utilized at 200 nM, 500 nM and 1 μM final concentrations as indicated. AS1708727 was purchased from MedChem Express (Monmouth Junction, NJ) and was used at 0.5 μM, 1.0 µM and 2.0 μM concentrations. 5-aza-2'-deoxycytidine (5-AZA) was purchased from Millipore/Sigma (Burlington, MA) and utilized at a final concentration of 3 μM. Total RNA was prepared using the Qiagen RNeasy kit (Hilden, Germany), which was then used to generate cDNA using Superscript Reverse Transcriptase II (Invitrogen, Carlsbad, CA). Samples (cDNAs) were analyzed using (Power SYBR Green Master Mix, Applied Biosystems, Foster City, CA) and the ABI Step-One Real-time system (Carlsbad, CA). Expression levels were normalized to Beta-Tubulin, TUBB in gene expression experiments and calculated using 2-4ACT method (Livak et al., 2001). Primer sequences are detailed in Table 1. MDA-MB-468 cells were grown to log phase in DMEM with 10% FBS without antibiotics. BT549 cells were grown to log phase in DMEM with 10% FBS without antibiotics. Cells were transfected with FOXO1 esiRNA (EHU156591 Sigma, St. Louis, MO) or EGFP control esiRNA (EHUEGFP) using Lipofectamine 3000 (utilized only […] reagent, Invitrogen, Carlsbad, CA).
(In general: Quantitative PCR measures a nucleic acid by following its amplification.)

A further test relates to MDA-MB-468. As to the kind of experiment: Colony formation assay (crystal violet). To be noted: treated five days.
A further test relates to BT549. As to the kind of experiment: Colony formation assay (crystal violet). To be noted: treated five days. On the procedure: (§2) Cell culture and drug treatments. Cell lines were obtained from ATCC (American Type Culture Collection, Manassas, VA) and grown under standard conditions (5% CO2, 10% FBS (fetal bovine serum), with 5% antifungal/antibacterial). Cell lines were tested for Mycoplasma using the MycoAlert Mycoplasma Detection Kit (Lonza, Basel Switzerland, cat: LT07-218); all experiments were done with mycoplasma negative cells. U87MG cells were propagated in MEM (Minimal Essential Medium). BT549 and DBTRG cells were propagated in RPMI (Roswell Park Memorial Institute 1640 Medium). LN18, U118MG, A172 and LN229 cells were propagated in DMEM (Dulbecco's Modified Eagle Medium). Neurosphere/cancer stem cell cultures for U87MG and BT549 cell lines were plated with 40,000 cells per mL in 3D Tumorsphere Medium XF (Sigma cat: C-28070, Burlington, MA). BT549 cancer stem cell cultures were supplemented with 1XB27 XenoFree CTS (Gibco/Thermo Fisher Waltham, MA, USA). AS1842856 was purchased from Calbiochem (Danvers, MA) and utilized at 200 nM, 500 nM and 1 μM final concentrations as indicated. AS1708727 was purchased from MedChem Express (Monmouth Junction, NJ) and was used at 0.5 μM, 1.0 µM and 2.0 μM concentrations. 5-aza-2′-deoxycytidine (5-AZA) was purchased from Millipore/Sigma (Burlington, MA) and utilized at a final concentration of 3 μM. Cells were plated at a density of 2,700 cells per mL and were treated five days with indicated drug. Treatments were investigated in triplicate (in numerous independent experiments) and stained with crystal violet. Plates were aspirated of media then each well was washed with 1.0 mL of 1x phosphate buffered saline (PBS) once before being stained with 1.0 mL of crystal violet stain (0.5% crystal violet in buffered formalin) and incubated for 15 minutes. The stain was aspirated, and wells were washed 3 times with 0.5 mL of 1x PBS. After collections were completed, crystal violet-stained plates were solubilized using 0.5 mL on each well of 10% acetic acid and placed on shaker for 1 hour. Solubilized samples were transferred to 96 well plates and quantified on a spectrophotometer at 590 nm. Quantified plates were analyzed with a Tukey test. Error bars were added using the standard deviation. Cells were plated at 2,700 cells per mL and were treated five days with the indicated drug. Treatments were investigated in triplicate (in numerous independent experiments) and stained with crystal violet. Plates were aspirated of media, then each well was washed with 1.0 mL of 1× phosphate-buffered saline (PBS) once before being stained with 1.0 mL of crystal violet stain (0.5% crystal violet in buffered formalin) and incubated for 15 minutes. The stain was aspirated, and cells were washed three times with 0.5 mL of 1×PBS. After collections were completed, crystal violet-stained plates were solubilized using 0.5 mL on each well of 10% acetic acid and placed on a shaker for 1 hour. Solubilized samples were transferred to 96 well plates and quantified on a spectrophotometer at 590 nm using iMark Microplate Absorbance Reader (Bio-Rad, Hercules, CA). Quantified plates were analyzed with a Tukey Test. Error bars were added using the standard deviation.

The test system of the next test is LN18. As to the kind of experiment: Colony formation assay (crystal violet). The note with it: treated five days. On the procedure:
as §2

A further test deals with MDA-MB-468 cells. As to the kind of experiment: Gene expression by qRT-PCR (TUBB reference). On the procedure:
as §1

Results on two molecules are retold here after patent publication US20240409934A1, “FOXO1-TARGETED THERAPY FOR THE TREATMENT OF CANCER” (BOARD OF REGENTS, THE UNIVERSITY OF TEXAS SYSTEM, priority 2021, published 2024).

As to `Nc1ncn([C@H]2C[C@H](O)[C@@H](CO)O2)c(=O)n1` [5-AZA, 5-aza-2′-deoxycytidine], in the test on BT549 cells (3 μM for 48 hours), the “FAS and BIM expression” value is “induced FAS and BIM”.
Take `CN(C(=O)CC1CCCC1)c1ccc(Cl)c(COc2cccc3cnccc23)c1Cl` [AS1708727, 2-cyclopentyl-N-[2,4-dichloro-3-(isoquinolin-5-yloxymethyl)phenyl] N-methylacetamide]: the colony formation entry in the test with MDA-MB-468, in the test on BT549 and with LN18 was “reduced colony formation” each time. Moreover, the “FAS and BIM gene induction, comparison of the two inhibitors” value with BT549 cells and in the test on MDA-MB-468 cells was “only induced the FAS gene” in each case. The FAS gene expression result in the test with BT549 cells (1 μM treatment for 4 days) is “increased FAS gene expression”; in the test on MDA-MB-468 cells (four days, 1 μM for two days), “increased FAS gene expression”.
